# Literature values as cited in PubChem BioAssay AID1259409 (Chemical Carcinogenesis Research Information System (CCRIS), 2018).
# Tested on: rodent chemically induced tumor inhibition, incidence and multiplicity
# Assay: CCRIS tumor inhibitor studies
# Conditions: Dose [Inhibitor]: 0, Route [Inhibitor]: ORAL
smiles,measurement,setting,value
COc1ccc2c(c1)c(CC(=O)O)c(C)n2C(=O)c1ccc(Cl)cc1,"tumour outcome (control, treated, inhibition, significance)","Carcinogen: N-BUTYL-N-(4-HYDROXYBUTYL)NITROSAMINE, 3817-11-6, 20 PPM IN DRINKING WATER FOR 40 WK BEGINNING POST CARCINOGEN TREATMENT (STUDY DURATION: 44 WK), Species: RAT, Strain/Sex: F344/MALE, Target Tissue: Type of Lesion: URINARY BLADDER: PAPILLOMA, Dose [Carcinogen]: 0.05% IN DRINKING WATER FOR 4 WK, Promoter: BUTYLATED HYDROXYANISOLE, 25013-16-5","14/15 (93%), 4/15 (27%), 71%, p<0.01"
same,"tumour outcome (control, treated, inhibition, significance)","Carcinogen: N-BUTYL-N-(4-HYDROXYBUTYL)NITROSAMINE, 3817-11-6, 20 PPM IN DRINKING WATER FOR 40 WK BEGINNING POST CARCINOGEN TREATMENT (STUDY DURATION: 44 WK), Species: RAT, Strain/Sex: F344/MALE, Target Tissue: Type of Lesion: URINARY BLADDER: PAPILLOMA, Dose [Carcinogen]: 0.05% IN DRINKING WATER FOR 4 WK, Promoter: SODIUM L-ASCORBATE, 134-03-2","15/15 (100%), 9/15 (60%), 40%, p<0.01"
same,"tumour outcome (control, treated, inhibition, significance)","Carcinogen: N-BUTYL-N-(4-HYDROXYBUTYL)NITROSAMINE, 3817-11-6, 20 PPM IN DRINKING WATER FOR 40 WK BEGINNING POST CARCINOGEN TREATMENT (STUDY DURATION: 44 WK), Species: RAT, Strain/Sex: F344/MALE, Target Tissue: Type of Lesion: URINARY BLADDER: TRANSITIONAL CELL CARCINOMA, Dose [Carcinogen]: 0.05% IN DRINKING WATER FOR 4 WK, Promoter: BUTYLATED HYDROXYANISOLE, 25013-16-5","10/15 (67%), 1/15 (7%), 90%, p<0.01"
same,"tumour outcome (control, treated, inhibition, significance)","Carcinogen: N-BUTYL-N-(4-HYDROXYBUTYL)NITROSAMINE, 3817-11-6, 20 PPM IN DRINKING WATER FOR 40 WK BEGINNING POST CARCINOGEN TREATMENT (STUDY DURATION: 44 WK), Species: RAT, Strain/Sex: F344/MALE, Target Tissue: Type of Lesion: URINARY BLADDER: TRANSITIONAL CELL CARCINOMA, Dose [Carcinogen]: 0.05% IN DRINKING WATER FOR 4 WK, Promoter: SODIUM L-ASCORBATE, 134-03-2","15/15 (100%), 5/15 (33%), 67%, p<0.01"
same,"tumour outcome (control, treated, inhibition, significance)","Carcinogen: N-BUTYL-N-(4-HYDROXYBUTYL)NITROSAMINE, 53609-64-6, 7.5 MG/KG OF DIET STARTING 1 WK PRIOR TO CARCINOGEN DOSE FROM 49 D OF AGE AND CONTINUING FOR DURATION OF STUDY (STUDY, Species: MOUSE, Strain/Sex: BDF/MALE, Target Tissue: Type of Lesion: BLADDER: CARCINOMA, Dose [Carcinogen]: 7.5 MG IN 0.1 ML OF ETHANOL:WATER (20:80) 1/WK FOR 8 WK, Promoter: NONE USED","14%, 4%, 71%, p<0.05"
same,"tumour outcome (control, treated, inhibition, significance)","Carcinogen: N-BUTYL-N-(4-HYDROXYBUTYL)NITROSAMINE, 53609-64-6, 7.5 MG/KG OF DIET STARTING 1 WK PRIOR TO CARCINOGEN DOSE FROM 49 D OF AGE AND CONTINUING FOR DURATION OF STUDY (STUDY, Species: MOUSE, Strain/Sex: BDF/MALE, Target Tissue: Type of Lesion: BLADDER: PAPILLOMA, Dose [Carcinogen]: 7.5 MG IN 0.1 ML OF ETHANOL:WATER (20:80) 1/WK FOR 8 WK, Promoter: NONE USED","13%, 1%, 92%, p<0.01"
same,"tumour outcome (control, treated, inhibition, significance)","Carcinogen: N-BUTYL-N-(4-HYDROXYBUTYL)NITROSAMINE, 53609-64-6, 15 MG/KG OF DIET STARTING 1 WK PRIOR TO CARCINOGEN DOSE AT 49 D OF AGE AND CONTINUING FOR DURATION OF STUDY (STUDY DU, Species: MOUSE, Strain/Sex: BDF/MALE, Target Tissue: Type of Lesion: BLADDER: CARCINOMA, Dose [Carcinogen]: 7.5 MG IN 0.1 ML OF ETHANOL:WATER (20:80) 1/WK FOR 8 WK, Promoter: NONE USED","14%, 0%, 100%, p<0.01"
same,"tumour outcome (control, treated, inhibition, significance)","Carcinogen: N-BUTYL-N-(4-HYDROXYBUTYL)NITROSAMINE, 53609-64-6, 15 MG/KG OF DIET STARTING 1 WK PRIOR TO CARCINOGEN DOSE AT 49 D OF AGE AND CONTINUING FOR DURATION OF STUDY (STUDY DU, Species: MOUSE, Strain/Sex: BDF/MALE, Target Tissue: Type of Lesion: BLADDER: PAPILLOMA, Dose [Carcinogen]: 7.5 MG IN 0.1 ML OF ETHANOL:WATER (20:80) 1/WK FOR 8 WK, Promoter: NONE USED","13%, 0%, 100%, p<0.01"
same,"tumour outcome (control, treated, inhibition, significance)","Carcinogen: N-ETHYL-N-NITROSOUREA, 759-73-9, 20 MG/L IN DRINKING WATER FOR 12 MO ADMINISTERED TO OFFSPRING OF CARCINOGEN-TREATED MOTHERS (STUDY DURATION: 12 MO), Species: RAT, Strain/Sex: ALBINO/MALE, FEMALE, Target Tissue: Type of Lesion: BRAIN: TUMOR, Dose [Carcinogen]: 75 MG/KG BW ADMINISTERED INTRAPERITONEALLY TO MOTHERS 21 D POST CONCEPTION, Promoter: NONE USED","36/42 (86%), 14/25 (56%), 35%, p<0.05"
same,"tumour outcome (control, treated, inhibition, significance)","Carcinogen: N-ETHYL-N-NITROSOUREA, 759-73-9, 20 MG/L IN DRINKING WATER FOR 12 MO ADMINISTERED TO OFFSPRING OF CARCINOGEN-TREATED MOTHERS (STUDY DURATION: 12 MO), Species: RAT, Strain/Sex: ALBINO/MALE, FEMALE, Target Tissue: Type of Lesion: KIDNEY: TUMOR, Dose [Carcinogen]: 75 MG/KG BW ADMINISTERED INTRAPERITONEALLY TO MOTHERS 21 D POST CONCEPTION, Promoter: NONE USED","19/42 (45%), 8/25 (32%), 29%, not significant"
